Test results published in US20030021796A1, “Method of enhancing T cell immunity by selection of antigen specific T cells” (priority 2001, published 2003).

System: B16 melanoma cells
Test: Protection against B16 melanoma transfected with A^bPCC50V54A-YFP in TCR^Tgα^−H-2M^−Ii^− mice
Assay type: in vivo, mouse
Protocol: Protection of a mouse melanoma model. Peptide selected CD4^+ T cells are shown to be functional and protect mice from melanoma tumor cells. To determine if peptide selected T lymphocytes are able to mount an effective immune response in vivo the ability of peptide-selected CD4^+ cells to protect mice from melanoma was assessed. Melanoma B16-F1 was transfected with constructs encoding the A^bβPCC50V54A chain tagged with yellow fluorescent protein (YFP) and A^bα chain. These transfectants weakly stimulated TCR^Tgα^− CD4^+ cells from wild type mice. TCR^Tgα^−H2-M^−Ii^− mice received subcutaneous injection of B16 melanoma transfectants. At the same time, half of these mice also received selecting agonist peptide. After 12 days, animals were sacrificed, and the phenotype of tumor cells and peripheral CD4^+ T cells in draining lymph nodes was examined. As shown in FIGS. 16A-E, only mice that received selecting peptide accumulated peripheral CD4^+ T cells. These cells responded to tumor as assessed by upregulation of CD69 and downregulation of CD62L. Most importantly, tumors in mice that received a selecting peptide were much smaller (4-6 times) and were composed of melanoma cells without surface expression of antigenic complex (only about ¼ of cells were YFP^+ compared to more then ¾ in mice not treated with the selecting peptide). […]

“AEGFSYTVANKAKGIT [PCC50V54A, analog of pigeon cytochrome C peptide PCC(43-58)]” was tested, and the “tumor mass / size relative to mice without selecting peptide” value (20 μg i.p.) was 4-6 times smaller and the “expression of A^bPCC50V54A-YFP on remaining tumor cells” value (more then ¾ YFP^+ in mice not treated) was “do not express A^bPCC50V54A-YFP”.
